From patent US7476764B2, “Phenylcarboxyamides as beta-secretase inhibitors” (Bristol-Myers Squibb Company, priority 2005, dated 2009)
Structures can show the parent of a compound that is named as a salt.

Target: T1, BACE1 enzyme (Homo sapiens, UniProt P56817)
T1 construct: The HEK293-9B.A1 cell line, which overexpresses the BACE1 enzyme, was derived from HEK293 cells; endogenous in cells; washed 48,000 x g pellet of the cell homogenate
Test: Radioligand displacement assay with a radiolabeled BACE inhibitor on HEK293-9B.A1 cell homogenate
Assay type: binding
Conditions: displacement of 1 nM tritiated radioligand, HEK293-9B.A1 homogenate, pH 5.0, 1.5 hr at 25° C.; read-out: Activity Rating (activity based on IC50 values)
Procedure: Radioligand displacement assays with a radiolabeled BACE inhibitor (WO 2004 013098, compound 3, where the methoxy group is substituted for C(^3H)3) were carried out using standard methods (Keen, M. (1999) in Receptor Binding Techniques (Walker, J. M. ed) p. 106 Humana Press, Totowa, N.J.). The HEK293-9B.A1 cell line, which overexpresses the BACE1 enzyme, was derived from HEK293 cells (Simmons, N. L. (1990) A cultured human renal epitheloid cell line responsive to vasoactive intestinal peptide. Exp. Physiol. 75:309-19.) by RAGE™ (Harrington, J. J. et al. (2001) Creation of genome-wide protein expression libraries using random activation of gene expression. Nat. Biotechnol. 19:440-5; U.S. Pat. Nos. 6,410,266 and 6,361,972). T225 flask cultures of HEK293-9B.A1 were grown to 80% confluency in DMEM supplemented with 2 mM L-glutamine, 10 μg/ml penicillin, 10 μg/ml streptomycin, 3 μg/ml puromycin, 100 nM methotrexate, and 10% fetal bovine serum (Invitrogen, Carlsbad, Calif.), harvested, and resuspended at 2×10^8 cells per 10 ml of lysis buffer consisting of 50 mM HEPES pH 7.0 containing a protease inhibitor cocktail of AEBSF 104 μM, aprotinin 80 nM, leupeptin 2 μM, bestatin 4 μM, pepstatin A 1.5 μM, and E-64 1.4 μM (0.1% of protease inhibitor cocktail P8340, Sigma-Aldrich, St. Louis, Mo.) at 4° C. The resuspended cells were homogenized using a Polytron (Brinkman, Westbury, N.Y.) at setting 6 for 10 sec., then centrifuged at 48,000×g for 10 min. The resulting pellet was washed by repeating the resuspension, homogenization and centrifugation steps. The final pellet was resuspended in buffer at 4° C. to yield a total protein concentration of 5 mg/ml, then aliquots were frozen in liquid nitrogen for further storage at −70° C. Immediately before carrying out a binding assay, an aliquot of cell homogenate was thawed and diluted to a concentration of 100 μg/ml in assay buffer consisting of 50 mM HEPES pH 5.0 and 0.1% CHAPSO. Assays were initiated in polypropylene 96-well plates (Costar, Cambridge, Mass.) by the addition of 200 μl of cell homogenate to 50 μl of assay buffer containing 1 nM radioligand (WO 2004 013098, compound 3, where the methoxy group is substituted for C(^3H)3: 80 Ci/mMol) and various concentrations of unlabelled compounds, and incubated for 1.5 hr. at 25° C. Separation of bound from free radioligand was by filtration on GFF glass fiber filters (Innotech Biosystems International, Lansing, Mich.) using an Innotech cell harvester.

T1 sequence (P56817 46-501): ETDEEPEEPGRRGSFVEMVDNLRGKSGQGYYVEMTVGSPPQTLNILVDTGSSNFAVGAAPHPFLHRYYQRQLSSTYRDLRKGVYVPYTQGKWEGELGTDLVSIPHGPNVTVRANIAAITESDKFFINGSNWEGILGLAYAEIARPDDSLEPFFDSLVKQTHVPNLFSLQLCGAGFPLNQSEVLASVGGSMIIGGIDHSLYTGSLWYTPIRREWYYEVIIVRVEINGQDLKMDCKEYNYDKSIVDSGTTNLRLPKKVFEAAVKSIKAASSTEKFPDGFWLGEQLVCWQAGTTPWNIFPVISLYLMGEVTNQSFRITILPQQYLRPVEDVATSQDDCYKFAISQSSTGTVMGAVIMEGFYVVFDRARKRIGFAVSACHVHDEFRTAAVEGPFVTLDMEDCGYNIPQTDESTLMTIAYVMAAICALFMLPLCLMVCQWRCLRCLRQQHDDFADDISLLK

| Compound | IC50 |
| --- | --- |
| CCCN(CCC)C(=O)c1cc(C(C)=O)cc(C(=O)N[C@@H](Cc2cc(F)cc(F)c2)[C@H](O)CNCc2cccc(OC)c2)c1 [Example 1, N^1-((2S,3R)-4-(3-methoxybenzylamino)-1-(3,5-difluorophenyl)-3-hydroxybutan-2-yl)-5-acetyl-N^3,N^3-dipropylisophthalamide TFA salt] | < 100 nM |
| CCCN(CCC)C(=O)c1cc(C(=O)N[C@@H](Cc2cc(F)cc(F)c2)[C@H](O)CNCc2cccc(OC)c2)cc(C(C)O)c1 (stereo partly drawn) [Example 2, N^1-((2S,3R)-4-(3-methoxybenzylamino)-1-(3,5-difluorophenyl)-3-hydroxybutan-2-yl)-5-(1-hydroxyethyl)-N^3,N^3-dipropylisophthalamide TFA salt] | < 100 nM |
| CCCN(CCC)C(=O)c1cc(C(=O)N[C@@H](Cc2cc(F)cc(F)c2)[C@H](O)CNCc2cccc(OC)c2)cc(/C(C)=N/OC)c1 [Example 3, N^1-((2S,3R)-4-(3-methoxybenzylamino)-1-(3,5-difluorophenyl)-3-hydroxybutan-2-yl)-5-((E)-1-(methoxyimino)ethyl)-N^3,N^3-dipropylisophthalamide TFA salt] | < 100 nM |
| CCCN(CCC)C(=O)c1cc(C(=O)N[C@@H](Cc2cc(F)cc(F)c2)[C@H](O)CNCc2cccc(OC)c2)cc(/C(C)=N/OCc2ccccc2)c1 [Example 4, N^1-((2S,3R)-4-(3-methoxybenzylamino)-1-(3,5-difluorophenyl)-3-hydroxybutan-2-yl)-5-((E)-1-(benzyloxyimino)ethyl)-N^3,N^3-dipropylisophthalamide TFA salt] | < 100 nM |
| CCCN(CCC)C(=O)c1cc(C(=O)N[C@@H](Cc2cc(F)cc(F)c2)[C@H](O)CNCc2cccc(OC)c2)cc(/C(C)=N/O)c1 [Example 5, N^1-((2S,3R)-4-(3-methoxybenzylamino)-1-(3,5-difluorophenyl)-3-hydroxybutan-2-yl)-5-((E)-1-(hydroxyimino)ethyl)-N^3,N^3-dipropylisophthalamide hydrochloride] | < 100 nM |
| CCCN(CCC)C(=O)c1cc(C(=O)N[C@@H](Cc2cc(F)cc(F)c2)[C@H](O)CNCc2cccc(OC)c2)cc(/C(C)=N/OCC(C)C)c1 [Example 6, N^1-((2S,3R)-4-(3-methoxybenzylamino)-1-(3,5-difluorophenyl)-3-hydroxybutan-2-yl)-5-((E)-1-(isobutoxyimino)ethyl)-N^3,N^3-dipropylisophthalamide TFA salt] | < 100 nM |
| C=CCO/N=C(\C)c1cc(C(=O)N[C@@H](Cc2cc(F)cc(F)c2)[C@H](O)CNCc2cccc(OC)c2)cc(C(=O)N(CCC)CCC)c1 [Example 7, N^1-((2S,3R)-4-(3-methoxybenzylamino)-1-(3,5-difluorophenyl)-3-hydroxybutan-2-yl)-5-((E)-1-(allyloxyimino)ethyl)-N^3,N^3-dipropylisophthalamide TFA salt] | < 100 nM |
| CCCN(C)C(=O)c1cc(C(C)=O)cc(C(=O)N[C@@H](Cc2cc(F)cc(F)c2)[C@H](O)CNCc2cccc(OC)c2)c1 [Example 8, N^1-((2S,3R)-4-(3-methoxybenzylamino)-1-(3,5-difluorophenyl)-3-hydroxybutan-2-yl)-5-acetyl-N^3-methyl-N^3-propylisophthalamide TFA salt] | < 100 nM |
| CCCN(C)C(=O)c1cc(C(=O)N[C@@H](Cc2cc(F)cc(F)c2)[C@H](O)CNCc2cccc(OC)c2)cc(/C(C)=N/O)c1 [Example 9, N^1-((2S,3R)-4-(3-methoxybenzylamino)-1-(3,5-difluorophenyl)-3-hydroxybutan-2-yl)-5-((E)-1-(hydroxyimino)ethyl)-N^3-methyl-N^3-propylisophthalamide hydrochloride] | < 100 nM |
| CCCN(C)C(=O)c1cc(C(=O)N[C@@H](Cc2cc(F)cc(F)c2)[C@H](O)CNCc2cccc(OC)c2)cc(/C(C)=N/OC)c1 [Example 10, N^1-((2S,3R)-4-(3-methoxybenzylamino)-1-(3,5-difluorophenyl)-3-hydroxybutan-2-yl)-5-((E)-1-(methoxyimino)ethyl)-N^3-methyl-N^3-propylisophthalamide hydrochloride] | < 100 nM |
| CCCN(C)C(=O)c1cc(C(=O)N[C@@H](Cc2cc(F)cc(F)c2)[C@H](O)CNCc2cccc(OC)c2)cc(/C(C)=N/OCc2ccccc2)c1 [Example 11, N^1-((2S,3R)-4-(3-methoxybenzylamino)-1-(3,5-difluorophenyl)-3-hydroxybutan-2-yl)-5-((E)-1-(benzyloxyimino)ethyl)-N^3-methyl-N^3-propylisophthalamide hydrochloride] | < 100 nM |
| CCCN(C)C(=O)c1cc(C(=O)N[C@@H](Cc2cc(F)cc(F)c2)[C@H](O)CNCc2cccc(OC)c2)cc(/C(C)=N/OCC(C)C)c1 [Example 12, N^1-((2S,3R)-4-(3-methoxybenzylamino)-1-(3,5-difluorophenyl)-3-hydroxybutan-2-yl)-5-((E)-1-(isobutoxyimino)ethyl)-N^3-methyl-N^3-propylisophthalamide hydrochloride] | < 100 nM |
| C=CCO/N=C(\C)c1cc(C(=O)N[C@@H](Cc2cc(F)cc(F)c2)[C@H](O)CNCc2cccc(OC)c2)cc(C(=O)N(C)CCC)c1 [Example 13, N^1-((2S,3R)-4-(3-methoxybenzylamino)-1-(3,5-difluorophenyl)-3-hydroxybutan-2-yl)-5-((E)-1-(allyloxyimino)ethyl)-N^3-methyl-N^3-propylisophthalamide hydrochloride] | < 100 nM |
| CCCO/N=C(\C)c1cc(C(=O)N[C@@H](Cc2cc(F)cc(F)c2)[C@H](O)CNCc2cccc(OC)c2)cc(C(=O)N(C)CCC)c1 [Example 14, N^1-((2S,3R)-4-(3-methoxybenzylamino)-1-(3,5-difluorophenyl)-3-hydroxybutan-2-yl)-N^3-methyl-5-((E)-1-(propoxyimino)ethyl)-N^3-propylisophthalamide] | < 100 nM |
| CCCN(C)C(=O)c1cc(C(=O)N[C@@H](Cc2cc(F)cc(F)c2)[C@H](O)CNCc2cccc(OC)c2)cc(C(C)O)c1 (stereo partly drawn) [Example 15, hydrochloride] | < 100 nM |
| COc1cccc(CNC[C@@H](O)[C@H](Cc2cc(F)cc(F)c2)NC(=O)c2cc(C(C)=O)cc(S(C)(=O)=O)c2)c1 [Example 16, N^1-((2S,3R)-4-(3-methoxybenzylamino)-1-(3,5-difluorophenyl)-3-hydroxybutan-2-yl)-3-acetyl-5-(methylsulfonyl)benzamide TFA salt] | 100 to 1000 nM |
| CO/N=C(\C)c1cc(C(=O)N[C@@H](Cc2cc(F)cc(F)c2)[C@H](O)CNCc2cccc(OC)c2)cc(S(C)(=O)=O)c1 [Example 17, N-((2S,3R)-4-(3-methoxybenzylamino)-1-(3,5-difluorophenyl)-3-hydroxybutan-2-yl)-3-((E)-1-(methoxyimino)ethyl)-5-(methylsulfonyl)benzamide TFA salt] | 100 to 1000 nM |
| COc1cccc(CNC[C@@H](O)[C@H](Cc2cc(F)cc(F)c2)NC(=O)c2cc(/C(C)=N/OCc3ccccc3)cc(S(C)(=O)=O)c2)c1 [Example 18, N-((2S,3R)-4-(3-methoxybenzylamino)-1-(3,5-difluorophenyl)-3-hydroxybutan-2-yl)-3-((E)-1-(benzyloxyimino)ethyl)-5-(methylsulfonyl)benzamide TFA salt] | 100 to 1000 nM |
